The subject of assay [1] is GPR158, AR and PSA expression in C4-2B cells. The note with it: DHT 10 nM. The method, then:
(§1) FIG. 2: Effects of an androgen on GPR158 expression. […] Total RNA (FIG. 2A-FIG. 2C) or cell lysates (FIG. 2E-FIG. 2G) were isolated and subjected to qRT-PCR and western blotting, respectively to estimate AR, PSA, GPR158 and beta-actin expression. […] Total RNA or the whole cell lysates were isolated and qRT-PCR and western blotting was performed, respectively to detect GPR158, AR, PSA and beta-actin levels (FIG. 2D) The mRNA level of the above indicated genes was considered 1 in cells grown in 10% FCS for calculating the relative fold difference of these genes in other experimental conditions. (FIG. 2A-FIG. 2H) The data represent three independent experiments.
(§2) For androgen starvation studies, LNCaP, PC-3, and DU145 cells were grown in 10% CSS.
(§3) Total RNA isolated from PCa cell lines with Aurum total RNA mini kit (Bio-Rad, Hercules, Calif.) was subjected to qRT-PCR analysis using iScript one-step RT-PCR kit with SYBR Green (Bio-Rad) on CFX96 Touch Real-Time PCR Detection System (Bio-Rad), according to the manufacturer's instructions. Relative quantification values of genes of interest were calculated as 2^−ΔΔCt by the comparative Ct method, where ΔΔCt=(Ct target mRNA of treated sample-Ct reference gene of treated sample)-(Ct target mRNA of control sample-Ct reference gene of control sample). The Inventors used beta-actin or GAPDH as a reference gene.
(§4) The whole cell lysates were prepared using radioimmunoprecipitation assay (RIPA) lysis buffer (50 mM Tris, 150 mM NaCl, 0.1% SDS, 0.5% Sodium Deoxycholate, 1% NP-40) spiked with a cocktail of protease inhibitors for 20 min, followed by centrifugation at 10,000 g for 10 min. Supernatants were collected and proteins in the extracts were separated by SDS-PAGE without boiling the samples and transferred to PVDF membranes. Membranes were probed with primary antibody against protein of interest and were developed by chemiluminescence with reagents Luminol enhancer solution and peroxide solution (GE Healthcare UK limited, Buckinghamshire, UK) and images were captured with Fujifilm imaging system (LAS-4000; Fujifilm, Tokyo, Japan). Protein loading was monitored by stripping and reprobing of the membrane with beta-actin antibody.

In assay [2] the test system is GPR158, AR and PSA expression in LNCaP cells. The note with it: DHT 10 nM. Here is the method: as §1, §2, §3, §4
Assay [3] concerns GPR158, AR and PSA expression in PHPECs. Particulars: DHT 10 nM. The method, then: as §1, §2, §3, §4
Assay [4] relates to GPR158 driven by a doxycycline inducible promoter; AR, PSA. As to the kind of experiment: Dox induction in lenti-GPR158 LNCaP cells (western blotting). Format: cell-based, human.
The subject of another assay is lenti-GPR158 LNCaP cells. As to the kind of experiment: Cell counting of lenti-GPR158 LNCaP cells after Dox treatment. In kind it is cell-based, human. The note with it: Dox 100 ng/mL.

The source of these data is patent publication US20180066064A1, “BIOTHERAPEUTICS TARGETING GPR158 FOR CANCER” (University of Southern California, priority 2015, published 2018).

For `C[C@]12CCC(=O)C[C@@H]1CC[C@@H]1[C@@H]2CC[C@]2(C)[C@@H](O)CC[C@@H]12` [DHT, dihydrotestosterone], the “effect on GPR158 mRNA and protein levels” value in assay [1] (C4-2B cells, 10% CSS) is listed as “no effect”. In addition, the AR protein stabilization result in assay [1] (C4-2B) is recorded as “not in C4-2B cells”; in assay [2] (LNCaP, 12 hrs) it was “AR protein stabilization”; in assay [3] (PHPEC, 12 hrs), “AR protein stabilization”. For the same compound, the “PSA mRNA and protein levels” value in assay [1] (C4-2B), in assay [2] (LNCaP) and in assay [3] (PHPEC) was “increased significantly” in each case. The “increase of GPR158 mRNA and protein levels” value is on record as 3-4 fold in assay [2] (LNCaP cells, 24 hrs, 10% CSS) and 3-4 fold in assay [3] (PHPECs, 24 hrs, 10% CSS).
Regarding `C[C@H]1c2cccc(O)c2C(=O)C2=C(O)[C@]3(O)C(=O)C(C(N)=O)=C(O)[C@@H](N(C)C)[C@@H]3[C@@H](O)[C@@H]21` [Dox, doxycycline], in assay [4] (Dox 100 ng/mL, at 4, 6 and 8 days (data not shown)), the “induction of GPR158 protein” value worked out at 3 fold. In assay [4] (Dox 500 ng/mL, 3 days), the “increase in GPR158 protein levels” value is recorded as roughly 6 fold. Besides, the “increase in cell numbers” value in the assay on lenti-GPR158 LNCaP cells (3 days, normalized for Dox alone on parental cells) was found to be 2.25 fold. Also, the “increase in cell numbers (growth curve)” value in the assay with lenti-GPR158 LNCaP cells (at 4, 6 and 8 days vs untreated) was “approximately 2 fold”.
